# Measurements: ChEMBL document CHEMBL1212792, “Comparative pharmacokinetics of ceftaroline in rats, rabbits, and monkeys following a single intravenous or intramuscular injection” (Antimicrob Agents Chemother, 2010)
# Experiments:
# [1] = system: Staphylococcus; experiment: Antibacterial activity against Staphylococcus; assay type: functional
# [2] = %T>MIC in Streptococcus pneumoniae-infected neutropenic mouse model; assay type: functional
# [3] = %T>MIC in gram negative bacteria-infected neutropenic mouse model; assay type: functional
# [4] = %T>MIC in Staphylococcus aureus-infected neutropenic mouse model; assay type: functional
# [5] = system: Streptococcus pneumoniae; experiment: Antibacterial activity against Streptococcus pneumoniae; assay type: functional
# [6] = %T>MIC in rabbit endocarditis model at 20 mg/kg, im administered as single dose measured after 8 hrs; assay type: functional; details: route intramuscular
# [7] = %T>MIC human infected with Staphylococcus at 600 mg. im administered every 12 hrs; details: route intramuscular
# [8] = %T>MIC in rabbit endocarditis model at 20 mg/kg, im administered as single dose measured after 12 hrs; assay type: functional; details: route intramuscular
# [9] = system: Staphylococcus; experiment: Antibacterial activity against Staphylococcus infected in human; assay type: functional
compound,measurement,setting,value
CCO/N=C(\C(=O)N[C@@H]1C(=O)N2C(C(=O)[O-])=C(Sc3nc(-c4cc[n+](C)cc4)cs3)CS[C@H]12)c1nsc(NP(=O)(O)O)n1 [CEFTAROLINE FOSAMIL],MIC90,[1],≤ 2 µg/mL
same,fT>MIC,[2],39%
same,fT>MIC,[3],32%
same,fT>MIC,[4],26%
same,MIC90,[5],≤ 2 µg/mL
same,fT>MIC,[6],46.3%
same,fT>MIC,[7],64.65%
same,fT>MIC,[8],30.9%
same,MIC,[9],0.12 µg/mL
